# Assays:
# [1] = Evaluated for anticancer activity in tumor inhibition system CD8F mammary tumor at a dose of 62 mg/kg, value was reported as weight difference; assay type: functional, Mus musculus
# P388 [2] = test: Evaluated for anticancer activity in survival tumor system P388 lymphocytic leukemia at a dose of 200 mg/kg; Number of Tested survived/number of control survived (0/6); assay type: functional, Mus musculus
# B16 [3] = test: Evaluated for anticancer activity in survival tumor system B16 melanocarcinoma at a dose of 100 mg/kg, value was reported as weight difference; assay type: functional, Mus musculus
# B16 [4] = test: Evaluated for anticancer activity in survival tumor system B16 melanocarcinoma at a dose of 50 mg/kg, value was reported as weight difference; assay type: functional, Mus musculus
# [5] = Evaluated for anticancer activity in tumor inhibition system CD8F1 mammary tumor at dose 62 mg/kg; assay type: functional, Mus musculus
# B16 [6] = test: Evaluated for anticancer activity in survival tumor system B16 melanocarcinoma at dose 12.5 mg/kg; assay type: functional, Mus musculus
# [7] = Evaluated for anticancer activity in tumor inhibition system CD8F1 mammary tumors at a dose of mg/kg;Number of Tested survived/number of control survived (10/10); assay type: functional, Mus musculus
# [8] = system: Lewis lung carcinoma cell line; test: Evaluated for anticancer activity in survival tumor system Lewis lung (LL) carcinoma at a dose of 200 mg/kg, value was reported as weight difference; assay type: functional, Mus musculus
# MX1 [9] = test: Evaluated for anticancer activity in tumor inhibition system MX-1 breast xenograph at a dose of 75 mg/kg; Number of Tested survived/number of control survived (4/6); assay type: functional, Homo sapiens
# [10] = Evaluated for anticancer activity in tumor inhibition system colon 38 tumor at dose 200 mg/kg; assay type: functional, Mus musculus
# [11] = system: Lewis lung carcinoma cell line; test: Evaluated for anticancer activity in survival tumor system Lewis lung (LL) carcinoma at a dose of 12.5 mg/kg, value was reported as weight difference; assay type: functional, Mus musculus
# L1210 [12] = test: Evaluated for anticancer activity in survival tumor system L1210 lymphoid leukemia at a dose of 6.25 mg/kg; Number of Tested survived/number of control survived (6/6); assay type: functional, Mus musculus
# [13] = Evaluated for anticancer activity in tumor inhibition system colon 38 tumor at dose 400 mg/kg; assay type: functional, Mus musculus
# [14] = system: Lewis lung carcinoma cell line; test: Evaluated for anticancer activity in survival tumor system Lewis lung (LL) carcinoma at dose 12.5 mg/kg; assay type: functional, Mus musculus
# P388 [15] = test: Evaluated for anticancer activity in survival tumor system P388 lymphocytic leukemia at a dose of 50 mg/kg;Number of Tested survived/number of control survived (5/5); conditions: Mus musculus
# P388 [16] = test: Evaluated for anticancer activity in survival tumor system P388 lymphocytic leukemia at dose 100 mg/kg; assay type: functional, Mus musculus
# MX1 [17] = test: Evaluated for anticancer activity in tumor inhibition system MX-1 breast xenograph at dose 150 mg/kg; assay type: functional, Homo sapiens
# [18] = system: Lewis lung carcinoma cell line; test: Evaluated for anticancer activity in survival tumor system Lewis lung (LL) carcinoma at dose 25 mg/kg; assay type: functional, Mus musculus
# P388 [19] = test: Evaluated for anticancer activity in survival tumor system P388 lymphocytic leukemia at a dose of 25 mg/kg;Number of Tested survived/number of control survived (5/6); assay type: functional, Mus musculus
# L1210 [20] = test: Evaluated for anticancer activity in survival tumor system L1210 lymphoid leukemia at dose 6.25 mg/kg; assay type: functional, Mus musculus
# [21] = Evaluated for anticancer activity in tumor inhibition system colon 38 tumors at a dose of 400 mg/kg; Number of Tested survived/number of control survived (10/10); assay type: functional, Mus musculus
# P388 [22] = test: Evaluated for anticancer activity in survival tumor system P388 lymphocytic leukemia at a dose of 12.5 mg/kg, value was reported as weight difference; assay type: functional, Mus musculus
# B16 [23] = test: Evaluated for anticancer activity in survival tumor system B16 melanocarcinoma at a dose of 25 mg/kg; Number of Tested survived/number of control survived (10/10); assay type: functional, Mus musculus
# P388 [24] = test: Evaluated for anticancer activity in survival tumor system P388 lymphocytic leukemia at a dose of 100 mg/kg; Number of Tested survived/number of control survived (5/6); assay type: functional, Mus musculus
# [25] = Evaluated for anticancer activity in tumor inhibition system colon 38 tumors at a dose of 200 mg/kg; Number of Tested survived/number of control survived (10/10); assay type: functional, Mus musculus
# B16 [26] = test: Evaluated for anticancer activity in survival tumor system B16 melanocarcinoma at a dose of 50 mg/kg; number of Tested survived/number of control survived; assay type: functional, Mus musculus
# [27] = Evaluated for anticancer activity in tumor inhibition system CD8F mammary tumor at a dose of 125 mg/kg, value was reported as weight difference; assay type: functional, Mus musculus
# B16 [28] = test: Evaluated for anticancer activity in survival tumor system B16 melanocarcinoma at a dose of 200 mg/kg, value was reported as weight difference; assay type: functional, Mus musculus
# [29] = Evaluated for anticancer activity in tumor inhibition system CD8F1 mammary tumors at a dose of 250 mg/kg; number of Tested survived/number of control survived; assay type: functional, Mus musculus
# L1210 [30] = test: Evaluated for anticancer activity in survival tumor system L1210 lymphoid leukemia at a dose of 6.25 mg/kg, value was reported as weight difference; assay type: functional, Mus musculus
# P388 [31] = test: Evaluated for anticancer activity in survival tumor system P388 lymphocytic leukemia at dose 50 mg/kg; assay type: functional, Mus musculus
# [32] = Evaluated for anticancer activity in tumor inhibition system CD8F1 mammary tumors at a dose of 125 mg/kg; Number of Tested survived/number of control survived (10/10); assay type: functional, Mus musculus
# MX1 [33] = test: Evaluated for anticancer activity in tumor inhibition system MX-1 breast xenograph at a dose of 75 mg/kg, value was reported as weight difference; assay type: functional, Homo sapiens
# P388 [34] = test: Evaluated for anticancer activity in survival tumor system P388 lymphocytic leukemia at a dose of 12.5 mg/kg;Number of Tested survived/number of control survived (5/6); assay type: functional, Mus musculus
# L1210 [35] = test: Evaluated for anticancer activity in survival tumor system L1210 lymphoid leukemia at dose 25 mg/kg; conditions: Mus musculus
# [36] = Evaluated for anticancer activity in tumor inhibition system colon 38 tumor at dose 100 mg/kg; assay type: functional, Mus musculus
# B16 [37] = test: Evaluated for anticancer activity in survival tumor system B16 melanocarcinoma at a dose of 6.25 mg/kg; Number of Tested survived/number of control survived (10/10); assay type: functional, Mus musculus
# B16 [38] = test: Evaluated for anticancer activity in survival tumor system B16 melanocarcinoma at dose 50 mg/kg; assay type: functional, Mus musculus
# MX1 [39] = test: Evaluated for anticancer activity in tumor inhibition system MX-1 breast xenograph at a dose of 300 mg/kg; Number of Tested survived/number of control survived (1/6); assay type: functional, Homo sapiens
# [40] = Evaluated for anticancer activity in tumor inhibition system colon 38 tumor at dose 50 mg/kg; assay type: functional, Mus musculus
# L1210 [41] = test: Evaluated for anticancer activity in survival tumor system L1210 lymphoid leukemia at dose 12.5 mg/kg; assay type: functional, Mus musculus
# P388 [42] = test: Evaluated for anticancer activity in survival tumor system P388 lymphocytic leukemia at a dose of 50 mg/kg, value was reported as weight difference; assay type: functional, Mus musculus
# [43] = system: Lewis lung carcinoma cell line; test: Evaluated for anticancer activity in survival tumor system Lewis lung (LL) carcinoma at a dose of 25 mg/kg; number of Tested survived/number of control survived; assay type: functional, Mus musculus
# P388 [44] = test: Evaluated for anticancer activity in survival tumor system P388 lymphocytic leukemia at a dose of 100 mg/kg, value was reported as weight difference; assay type: functional, Mus musculus
smiles,measurement,setting,value
COc1cc2c[n+](C)c3c(c2cc1OC)Cc1cc2c(cc1-3)OCO2.[Cl-],Weight change,[1],-1
same,Survival,P388 [2],0
same,Weight change,B16 [3],-4.6
same,Weight change,B16 [4],-4.9
same,T/C,[5],92%
same,T/C,B16 [6],131%
same,Survival,[7],10
same,Weight change,[8],-4.9
same,Survival,MX1 [9],4
same,T/C,[10],97%
same,Weight change,[11],-0.9
same,Survival,L1210 [12],6
same,T/C,[13],85%
same,T/C,[14],97%
same,Survival,P388 [15],5
same,T/C,P388 [16],168%
same,T/C,MX1 [17],35%
same,T/C,[18],114%
same,Survival,P388 [19],5
same,T/C,L1210 [20],154%
same,Survival,[21],10
same,Weight change,P388 [22],-1.4
same,Survival,B16 [23],10
same,Survival,P388 [24],5
same,Survival,[25],10
same,Survival,B16 [26],10
same,Weight change,[27],-3.2
same,Weight change,B16 [28],-4.2
same,Survival,[29],2
same,Weight change,L1210 [30],-3.2
same,T/C,P388 [31],149%
same,Survival,[32],10
same,Weight change,MX1 [33],-4.5
same,Survival,P388 [34],5
same,T/C,L1210 [35],165%
same,T/C,[36],107%
same,Survival,B16 [37],10
same,T/C,B16 [38],147%
same,Survival,MX1 [39],1
same,T/C,[40],94%
same,T/C,L1210 [41],156%
same,Weight change,P388 [42],-5
same,Survival,[43],10
same,Weight change,P388 [44],-5.8
